Results published in the NIST ThermoML archive (doi:10.1016/j.fluid.2016.05.024).

Experiment: mn = molality of the nth substance listed, in mol/kg
Settings: 87 kPa, Liquid, Vibrating tube method

CCn1cc[n+](C)c1.O=S(=O)([O-])O [1-ethyl-3-methylimidazolium hydrogen sulfate] + O
mass density [kg/m3]
Settings	m1 = 0.0528	m1 = 0.1003	m1 = 0.1503	m1 = 0.2034	m1 = 0.253	m1 = 0.303	m1 = 0.3548	m1 = 0.4046	m1 = 0.453	m1 = 0.5055
293.15 K	1000.86	1003.08	1005.3	1007.57	1009.63	1011.67	1013.72	1015.68	1017.53	1019.54
298.15 K	999.65	1001.82	1003.99	1006.22	1008.23	1010.23	1012.24	1014.17	1016	1017.98
303.15 K	998.2	1000.33	1002.46	1004.64	1006.63	1008.6	1010.58	1012.47	1014.26	1016.21
308.15 K	996.54	998.63	1000.73	1002.87	1004.82	1006.76	1008.7	1010.58	1012.34	1014.25
313.15 K	994.68	996.73	998.8	1000.91	1002.83	1004.74	1006.66	1008.5	1010.24	1012.13

CCn1cc[n+](C)c1.[Cl-] [1-ethyl-3-methylimidazolium chloride] + O
mass density [kg/m3]
Settings	m1 = 0.0532	m1 = 0.1024	m1 = 0.1528	m1 = 0.2049	m1 = 0.2529	m1 = 0.3082	m1 = 0.3571	m1 = 0.4077	m1 = 0.459	m1 = 0.5026
293.15 K	998.82	999.41	1000.01	1000.63	1001.2	1001.84	1002.41	1002.99	1003.56	1004.05
298.15 K	997.66	998.23	998.82	999.43	999.98	1000.61	1001.17	1001.73	1002.29	1002.77
303.15 K	996.25	996.81	997.39	997.98	998.52	999.14	999.68	1000.24	1000.79	1001.26
308.15 K	994.62	995.17	995.74	996.32	996.85	997.46	997.99	998.53	999.08	999.54
313.15 K	992.79	993.34	993.9	994.48	995.01	995.61	996.13	996.67	997.21	997.67
